Experimental data taken from the CheMixHub viscosity set.
Where “and” joins values, the source holds several entries; their conditions need not be identical. Equal entries are not always repeated.

Test: xn = mol fraction of the nth substance listed

COC(C)=O + CN1CCCC1=O
viscosity [mPa·s], 101 kPa
Conditions | x2 = 0.0845 | x2 = 0.172 | x2 = 0.2626 | x2 = 0.3565 | x2 = 0.4539 | x2 = 0.5549 | x2 = 0.6598 | x2 = 0.7688 | x2 = 0.8821
303.15 K | 0.52 | 0.671 | 0.818 | 0.958 | 1.096 | 1.22 | 1.326 | 1.424 | 1.502
308.15 K | 0.488 | 0.619 | 0.749 | 0.873 | 0.991 | 1.102 | 1.195 | 1.284 | 1.358
313.15 K | 0.445 | 0.571 | 0.693 | 0.811 | 0.923 | 1.028 | 1.118 | 1.202 | 1.271
318.15 K | 0.412 | 0.526 | 0.638 | 0.743 | 0.846 | 0.939 | 1.022 | 1.098 | 1.163

c1ccc2ncccc2c1 + Oc1ccccc1Cl
Conditions | viscosity [mPa·s]
293.15 K, 101 kPa, x2 = 0.1686 | 6.62
293.15 K, 101 kPa, x2 = 0.3263 | 13
293.15 K, 101 kPa, x2 = 0.4251 | 23.62
293.15 K, 101 kPa, x2 = 0.4893 | 33.45
293.15 K, 101 kPa, x2 = 0.5043 | 35.1
293.15 K, 101 kPa, x2 = 0.534 | 36.9
293.15 K, 101 kPa, x2 = 0.5506 | 37.25
293.15 K, 101 kPa, x2 = 0.5803 | 36.62
293.15 K, 101 kPa, x2 = 0.6353 | 31.62
293.15 K, 101 kPa, x2 = 0.7227 | 21.85
293.15 K, 101 kPa, x2 = 0.8671 | 9.95
298 K, 101.3 kPa, x1 = 0.0761 | 4.871
298 K, 101.3 kPa, x1 = 0.1549 | 7.882
298 K, 101.3 kPa, x1 = 0.2343 | 11.68
298 K, 101.3 kPa, x1 = 0.3348 | 19.63
298 K, 101.3 kPa, x1 = 0.4286 | 26.3
298 K, 101.3 kPa, x1 = 0.5274 | 21.74
298 K, 101.3 kPa, x1 = 0.6364 | 12.94
298 K, 101.3 kPa, x1 = 0.7447 | 8.205
298 K, 101.3 kPa, x1 = 0.8898 | 4.628
303 K, 101.3 kPa, x1 = 0.0761 | 4.063
303 K, 101.3 kPa, x1 = 0.1549 | 6.073
303 K, 101.3 kPa, x1 = 0.2343 | 9.042
303 K, 101.3 kPa, x1 = 0.3348 | 14.39
303 K, 101.3 kPa, x1 = 0.4286 | 18.2
303 K, 101.3 kPa, x1 = 0.5274 | 16.12
303 K, 101.3 kPa, x1 = 0.6364 | 10.29
303 K, 101.3 kPa, x1 = 0.7447 | 6.433
303 K, 101.3 kPa, x1 = 0.8898 | 4.058
303.15 K, 101 kPa, x2 = 0.1686 | 4.87
303.15 K, 101 kPa, x2 = 0.3263 | 9.11
303.15 K, 101 kPa, x2 = 0.4251 | 14.4
303.15 K, 101 kPa, x2 = 0.4893 | 17.92
303.15 K, 101 kPa, x2 = 0.5043 | 18.4
303.15 K, 101 kPa, x2 = 0.534 | 19
303.15 K, 101 kPa, x2 = 0.5506 | 19.01
303.15 K, 101 kPa, x2 = 0.5803 | 18.88
303.15 K, 101 kPa, x2 = 0.6353 | 17.42
303.15 K, 101 kPa, x2 = 0.7227 | 12.82
303.15 K, 101 kPa, x2 = 0.8671 | 6.41
308 K, 101.3 kPa, x1 = 0.0761 | 3.469
308 K, 101.3 kPa, x1 = 0.1549 | 5.006
308 K, 101.3 kPa, x1 = 0.2343 | 7.403
308 K, 101.3 kPa, x1 = 0.3348 | 11.49
308 K, 101.3 kPa, x1 = 0.4286 | 14.09
308 K, 101.3 kPa, x1 = 0.5274 | 12.37
308 K, 101.3 kPa, x1 = 0.6364 | 8.401
308 K, 101.3 kPa, x1 = 0.7447 | 5.506
308 K, 101.3 kPa, x1 = 0.8898 | 3.581
313 K, 101.3 kPa, x1 = 0.0761 | 2.998
313 K, 101.3 kPa, x1 = 0.1549 | 4.205
313 K, 101.3 kPa, x1 = 0.2343 | 6.048
313 K, 101.3 kPa, x1 = 0.3348 | 9.267
313 K, 101.3 kPa, x1 = 0.4286 | 11.03
313 K, 101.3 kPa, x1 = 0.5274 | 9.852
313 K, 101.3 kPa, x1 = 0.6364 | 7.017
313 K, 101.3 kPa, x1 = 0.7447 | 4.762
313 K, 101.3 kPa, x1 = 0.8898 | 3.171
313.15 K, 101 kPa, x2 = 0.1686 | 3.71
313.15 K, 101 kPa, x2 = 0.3263 | 6.35
313.15 K, 101 kPa, x2 = 0.4251 | 8.96
313.15 K, 101 kPa, x2 = 0.4893 | 10.47
313.15 K, 101 kPa, x2 = 0.5043 | 10.73
313.15 K, 101 kPa, x2 = 0.534 | 10.95
313.15 K, 101 kPa, x2 = 0.5506 | 10.98
313.15 K, 101 kPa, x2 = 0.5803 | 10.89
313.15 K, 101 kPa, x2 = 0.6353 | 10
313.15 K, 101 kPa, x2 = 0.7227 | 7.64
313.15 K, 101 kPa, x2 = 0.8671 | 4.33
318 K, 101.3 kPa, x1 = 0.0761 | 2.614
318 K, 101.3 kPa, x1 = 0.1549 | 3.59
318 K, 101.3 kPa, x1 = 0.2343 | 4.979
318 K, 101.3 kPa, x1 = 0.3348 | 7.306
318 K, 101.3 kPa, x1 = 0.4286 | 8.786
318 K, 101.3 kPa, x1 = 0.5274 | 7.927
318 K, 101.3 kPa, x1 = 0.6364 | 5.922
318 K, 101.3 kPa, x1 = 0.7447 | 4.17
318 K, 101.3 kPa, x1 = 0.8898 | 2.824

COc1ccccc1N + CCC(C)=O
viscosity [mPa·s], 100 kPa
Conditions | x1 = 0.0814 | x1 = 0.1724 | x1 = 0.2543 | x1 = 0.3412 | x1 = 0.4394 | x1 = 0.5191 | x1 = 0.6354 | x1 = 0.7587 | x1 = 0.8677
303.15 K | 0.785 | 1.225 | 1.615 | 2.024 | 2.477 | 2.84 | 3.362 | 3.906 | 4.373
308.15 K | 0.727 | 1.145 | 1.51 | 1.888 | 2.31 | 2.648 | 3.136 | 3.642 | 4.073
313.15 K | 0.669 | 1.064 | 1.403 | 1.751 | 2.142 | 2.455 | 2.907 | 3.376 | 3.77

COC(C)=O + O=C1CCCO1
298.15 K, 101.33 kPa
Conditions | viscosity [mPa·s]
x1 = 0.0471 | 1.585
x1 = 0.1055 | 1.467
x1 = 0.1514 | 1.365
x1 = 0.2015 | 1.254
x1 = 0.2517 | 1.16
x1 = 0.293 | 1.091
x1 = 0.4005 | 0.902
x1 = 0.4297 | 0.858
x1 = 0.4981 | 0.746
x1 = 0.5486 | 0.678
x1 = 0.5907 | 0.632
x1 = 0.701 | 0.52
x1 = 0.745 | 0.485
x1 = 0.7921 | 0.446
x1 = 0.8471 | 0.416
x1 = 0.9005 | 0.378
x1 = 0.9509 | 0.369

COC(C)=O + OCCO
viscosity [mPa·s], 101.33 kPa
Conditions | x2 = 0.1014 | x2 = 0.1953 | x2 = 0.2981 | x2 = 0.3974 | x2 = 0.5029 | x2 = 0.5992 | x2 = 0.6997 | x2 = 0.799 | x2 = 0.9639
298.15 K | 0.543 | 0.645 | 0.829 | – | 1.85 | 2.329 | 3.499 | 5.578 | 9.086
303.15 K | 0.507 | 0.599 | 0.756 | 1.008 | 1.633 | 2.026 | 3.025 | 4.658 | 7.673
308.15 K | 0.473 | 0.561 | 0.701 | 0.921 | 1.439 | 1.781 | 2.643 | 3.989 | 6.317

O=C([O-])[O-].[Na+].[Na+] + O
Conditions | viscosity
293.15 K, 101.33 kPa, x1 = 0.0032 | 1.085 mPa·s
293.15 K, 101.33 kPa, x1 = 0.0051 | 1.152 mPa·s
293.15 K, 101.33 kPa, x1 = 0.008 | 1.264 mPa·s
293.15 K, 101.33 kPa, x1 = 0.0115 | 1.414 mPa·s
293.15 K, 101.33 kPa, x1 = 0.0152 | 1.593 mPa·s
293.15 K, 101.33 kPa, x1 = 0.0197 | 1.844 mPa·s
293.15 K, 101.33 kPa, x1 = 0.0224 | 2.015 mPa·s
293.15 K, 101.33 kPa, x1 = 0.0255 | 2.232 mPa·s
293.15 K, 101.33 kPa, x1 = 0.0288 | 2.49 mPa·s
293.65 K, 100 kPa, x1 = 0.00502 | 1.145 mPa·s
298.15 K, 101 kPa, x1 = 0.0002 | 0.95 mPa·s
298.15 K, 101 kPa, x1 = 0.001 | 0.95 mPa·s
298.15 K, 101 kPa, x1 = 0.0027 | 0.99 mPa·s
298.15 K, 101 kPa, x1 = 0.00397 | 1.01 mPa·s
298.15 K, 101.33 kPa, x1 = 0.0032 | 0.96 mPa·s
298.15 K, 101.33 kPa, x1 = 0.0051 | 1.018 mPa·s
298.15 K, 101.33 kPa, x1 = 0.008 | 1.113 mPa·s
298.15 K, 101.33 kPa, x1 = 0.0115 | 1.242 mPa·s
298.15 K, 101.33 kPa, x1 = 0.0152 | 1.395 mPa·s
298.15 K, 101.33 kPa, x1 = 0.0197 | 1.609 mPa·s
298.15 K, 101.33 kPa, x1 = 0.0224 | 1.753 mPa·s
298.15 K, 101.33 kPa, x1 = 0.0255 | 1.937 mPa·s
298.15 K, 101.33 kPa, x1 = 0.0288 | 2.155 mPa·s
301.15 K, 100 kPa, x1 = 0.0101 | 1.115 mPa·s and 1.117 mPa·s
303.15 K, 101 kPa, x1 = 0.002 | 0.836 mPa·s
303.15 K, 101 kPa, x1 = 0.005 | 0.923 mPa·s
303.15 K, 101 kPa, x1 = 0.009 | 1.026 mPa·s
303.15 K, 101.33 kPa, x1 = 0.0032 | 0.864 mPa·s
303.15 K, 101.33 kPa, x1 = 0.0051 | 0.915 mPa·s
303.15 K, 101.33 kPa, x1 = 0.008 | 0.998 mPa·s
303.15 K, 101.33 kPa, x1 = 0.0115 | 1.11 mPa·s
303.15 K, 101.33 kPa, x1 = 0.0152 | 1.244 mPa·s
303.15 K, 101.33 kPa, x1 = 0.0197 | 1.429 mPa·s
303.15 K, 101.33 kPa, x1 = 0.0224 | 1.554 mPa·s
303.15 K, 101.33 kPa, x1 = 0.0255 | 1.712 mPa·s
303.15 K, 101.33 kPa, x1 = 0.0288 | 1.9 mPa·s
306.65 K, 100 kPa, x1 = 0.0101 | 0.987 mPa·s
308.15 K, 101 kPa, x1 = 0.002 | 0.763 mPa·s
308.15 K, 101 kPa, x1 = 0.005 | 0.842 mPa·s
308.15 K, 101 kPa, x1 = 0.009 | 0.931 mPa·s
308.65 K, 100 kPa, x1 = 0.00502 | 0.825 mPa·s
311.15 K, 100 kPa, x1 = 0.0168 | 1.1 mPa·s
311.15 K, 100 kPa, x1 = 0.02299 | 1.331 mPa·s and 1.332 mPa·s
313.15 K, 101 kPa, x1 = 0.0002 | 0.7 mPa·s
313.15 K, 101 kPa, x1 = 0.001 | 0.7 mPa·s
313.15 K, 101 kPa, x1 = 0.002 | 0.694 mPa·s
313.15 K, 101 kPa, x1 = 0.0027 | 0.72 mPa·s
313.15 K, 101 kPa, x1 = 0.00397 | 0.74 mPa·s
313.15 K, 101 kPa, x1 = 0.005 | 0.763 mPa·s
313.15 K, 101 kPa, x1 = 0.009 | 0.846 mPa·s
